What was measured:
[1] = HFD-fed WT mice treated with CPACC i.p.; type: in vivo
Method: CPACC treatment enhances adipose browning and lowers whole body weight. Given the potent mMg^2+ uptake inhibiting properties and low toxicity of CPACC, we hypothesized that CPACC could mimic Mrs2^−/− cellular phenotype. WT hepatocytes isolated from over 12 months old mice were treated with 50 μM CPACC for 48 hours. Control and CPACC treated hepatocytes were stained with BODIPY and TMRE for intracellular tracing using confocal imaging. […] Next it was determined if CPACC treatment affects the mitochondrial oxygen consumption rate. Freshly isolated WT hepatocytes were treated with 5-25 μM concentrations of CPACC for 16 hours before measurement of oxygen consumption rate. […] Since it was observed an enhancement of basal OCR in CPACC treated hepatocytes, the extracellular acidification rate was measured in control and CPACC treated hepatocytes and found it to be higher in the CPACC condition indicating higher glycolytic activity (FIG. 11G). Having observed that pharmacologic blockade of Mrs2 by CPACC reduced lipid droplet size and enhanced mitochondrial function, it was asked whether in vivo administration of CPACC lowers body weight gain. 12 weeks HFD-fed WT mice were treated with CPACC (20 mg/kg) via intraperitoneal injection every three days over 6 weeks. […] Because it was observed browning/beiging in Mrs2^−/− iWAT, UCP1 expression by RT-qPCR was tested, confirming induction in the iWAT of CPACC treated mice.
Animal models. Wild-type (WT) and Mrs2^−/− (KO) C57BL/6J mice were housed and maintained in our animal breeding facility with prior approval and accordance with the Institutional Animal Care and Use Committee (IACUC). Mice were fed a Western Diet (WD; Research Diets D09100310), a standard Chow Diet (CD; Envigo 7012), or a High Fat Diet (HFD; Research Diets D12492). For most experiments, WT and KO mice were maintained on the WD or the CD starting at 12 weeks of age. With termination at 12 months. WT mice maintained on a HFD starting at 6 weeks were administered control (saline) or CPACC (20 mg/kg BW in saline) I.P. every 3 days starting after 6 weeks of maintained diet. Body weight, health, and food were measured regularly for all groups. […]
Plasma alanine transaminase activity and citrate measurements. Liver function and damage was determined by measuring alanine transaminase (ALT). The ALT activity in the plasma was determined using the Alanine Transaminase Activity Assay Kit (Abcam ab105134) following manufacturer's protocol. The plasma ALT levels over two different time points were obtained and corresponding ALT activity was determined by reading in a plate reader at 570 nm. […] Citrate levels were determined using the Citrate Assay Kit (Abcam ab83396) by reading in a plate reader at 570 nm following the manufacturer's protocol. […]

HIF-1α = conditions: cell culture
Source text: HIF-1α is stabilized in Mrs2−/− mice. To examine the intrinsic role of Mrs2, Mrs2^−/− mice were challenged to LPS-induced inflammatory response. It was noticed that there was a barely detectable HIF-1α stabilization in control but a significant HIF-1α protein accumulation following LPS stimulation in Mrs2^−/− hepatocytes (Daw et al., 2020). […] It was envisioned that loss of Mrs2 in hepatocyte mitochondria might control metabolite fluxes that regulates HIF-1α stability under normoxic conditions. HIF-1α is the most commonly studied transcription factor that responds to oxygen tension and its stabilization controls numerous metabolic cascades, including glycolysis and oxidative phosphorylation (Kaelin and Ratcliffe, 2008; Lum et al., 2007; Semenza, 2013). A targeted metabolite screen was conducted to identify whether these metabolites potentially altered in Mrs2^−/− control HIF-1α stabilization. WT hepatocytes were treated with the PHD inhibitor FG-4952 for 6 hours in the presence or absence of metabolites (Buckley et al., 2012). […] Next it was explored whether citric acid mediated HIF-1α destabilization is a hydroxylation dependent mechanism by reconstitution of hydroxylation-dead mutant HIF-1α in COS-7 cells (Yan et al., 2007). […] Next tested the potency of citric acid and sodium citrate was tested. Hepatocytes isolated from WT or Mrs2^−/− mice were treated for 6 hours. HIF-1α stabilization was less affected by di- or tri-sodium citrate than by citric acid (FIG. 9G). […] The citric acid-mediated HIF-1α destabilization was intact in multiple chemical modalities (FIG. 9H) and the intracellular chelation of Mg^2+ ions suppressed FG-4952-induced HIF-1α stabilization (FIG. 9I). […] Furthermore, COS-7 cells were more sensitive to the HIF-1α stabilizing effect compared to hepatocytes. […] Next HIF-1α abundance was tested in liver tissues harvested from dietary cohorts. HIF-1α protein expression/stabilization was prominent in both Mrs2^−/− and Mrs2^−/− WD, whereas HIF-1α protein was nearly completely absent in WT WD (FIG. 9M). This supports the elevation of HIF-1α protein level as a key mechanism driving transcription changes in Mrs2^−/− WD livers.
Immunoblotting. Crushed tissues were homogenized in lysis buffer (ThermoFisher) on ice for one minute (20-30 strokes) using an automatic Dounce homogenizer set to 2000 RPM. Whole cell lysate was prepared in lysis buffer (Abcam) using 3 sets of 3-second sonication (power level 3) intervals on ice. Protein concentration was estimated using Pierce BCA assay kit and samples were prepared and heated for 90° C. for 5 minutes. Equal amounts of protein were loaded and separated on 4%-12% Bis-Tris polyacrylamide gel (Thermo Fisher Scientific), transferred to a PVDF membrane, blocked for 1-2 h using 5% fat free skim milk, washed and finally, probed with corresponding antibodies as specified below. Antibodies were from Cell Signaling Technology (HIF-1α and Hydroxy HIF-1α dilution 1:3000, MCU dilution 1.5000, MICU1 dilution 1:3000), Abcam Abcam (CPT-1a, CPT-2, OXPHOS cocktail dilution 1:3000), ZYMED Laboratories (β-actin; dilution 1:1,000), and Amersham (secondary antibodies conjugated with peroxidase). Development was done using X-ray film using a series of timed exposures and Image J was used for densitometric analysis on scanned film images.

SMILES: [NH2][Co]([NH2])([NH2])([NH2])([NH2])[Cl] [CPACC, chloropentaammine cobalt (III) chloride]
- RT-qPCR analysis of WAT tissue (HIF-1α pathway) ([1]; HFD mice, 20 mg/kg i.p.): transcriptional signature of HIF-1α activation
- UCP1 expression in iWAT by RT-qPCR ([1]; HFD-fed WT mice, 20 mg/kg i.p.): induction
- body weight gain ([1]; HFD-fed WT mice, 20 mg/kg i.p. every three days over 6 weeks): restricted body weight gain
- Plasma ALT levels ([1]; HFD-fed WT mice, 20 mg/kg i.p., versus control group): lower
- HIF-1α stabilization by the compound (HIF-1α): partial stabilization

Source: patent publication US20240415878A1, “Compositions and Methods for Modulating Mitochondrial Function” (Board of Regents, The University of Texas System, priority 2021, published 2024)
